# Data taken from EP0472573B1, “HERBICIDE RESISTANT MAIZE” (ZENECA LIMITED, priority 1989, dated 1990).
# Target: ALS enzyme extracted from Mutant 1 (heterozygous)
# Experiment: ALS enzyme assay, heterozygous Mutant 1
# Type: biochemical, Zea mays
# Conditions: ALS of heterozygous Mutant 1; read-out: ID50% (the source's name)
# Description: (§1) Seeds of generation M₁BC₁ M₁BC₂ of the nine mutants were sprayed pre-emergence with the herbicide imazethapyr (PURSUIT) (Trade Mark) at a rate of 250 g/ha and grown in a growth chamber (16 hour day, 27°C; 8 hour night, 17°C). Plants were harvested after 11 days.
# (§2) Four grams of leaf material were harvested from just above the first leaf axis and ground in a mortar and pestle in 20ml of a solution containing 40mM Tricine (Trade Mark), 10mM EDTA, 5mM pyruvate, 80 »M flavin adenine dinucleotide (FAD), 1mM dithiothreitol (DTT), pH 8, plus 0.8g Polyclar AT. The homogenate was pressed through four layers of muslin and centrifuged at 30,000g for 20 minutes.
# (§3) The supernatant was brought to 65% saturation with ammonium sulphate, left to precipitate for 30 minutes and then centrifuged at 30.000g for 20 minutes. The pellet was resuspended in 2.5ml of 40mM Tricine, 10mM EDTA, 5mM pyruvate, 80»M FAD, 25% (v/v) glycerol, 1mM DTT, pH 8, and desalted into 3.5ml of 40mM Tricine, 10mM EDTA, 25% (v/v) glycerol, 1mM DTT, pH 8.
# (§4) One hundred microlitres of the enzyme extract was used for each assay. Final reagent concentrations were: 120mM Tricine, 50mM pyruvate, 10mM MgCl₂, […], 93»M thiamine pyrophosphate (TPP), pH 8, in the presence or absence of a herbicide of interest, in a volume of 750 »l. Incubations were carried out at 37°C for 30 minutes. Reactions were stopped with 250»l of 1.84M sulphuric acid, and decarboxylation of the acetolactate carried out at 37°C for 75 minutes, or at 60°C for 30 minutes. Assay blanks had sulphuric acid added prior to the enzyme extract. To the samples and blanks 650»l of α-naphthol in 2.73M NaOH/0.16%(w/v) creatine were added followed by incubation at 37°C for 30 minutes. After centrifugation at 30,000g the optical density of the supernatant was read at 540nm.
# (§5) The assay procedure described was carried out on ALS enzyme extracted from each of the nine mutants for the following herbicides: imazethapyr (PURSUIT) imazapyr (ARSENAL) imazaquin (SCEPTER) chlorsulfuron (GLEAN) chlorimuron (CLASSIC) […] (HARMONY) The enzyme activity graphs are given as Figures 3 to 8. In addition, homozygous lines of mutants 1 and 2 which were selected from generation M₁BC₁S₂, were also tested against the same group of herbicides and against representatives of the triazolopyrimidines and phenoxypyrimidines. The chemical structures of these herbicides are shown in Figure 2 of the accompanying drawings.
# (§6) From the enzyme assay data it is possible to derive, as a measure of the degree of inhibition the factor ID50% for each mutant and for each herbicide. This factor is indicative of the herbicide concentration which gives 50% inhibition of the ALS activity in comparison with the wild-type control. It is also possible to derive the fold increase in resistance.
row,Structure (SMILES),IC50
1,"CC(C)C1(C)N=C(c2nc3ccccc3cc2C(=O)O)NC1=O (stereo not shown) [Imazaquin, imazaquin]",150 µM
2,"CCc1cnc(C2=NC(=O)C(C)(C(C)C)N2)c(C(=O)O)c1 (stereo not shown) [Imazethapyr, 5-ethyl-2-(5-iso-propyl-5-methyl-4-oxo-2-imidazolin-2-yl) nicotinic acid]",> 1000 µM

# Same assay, conditions: Mutant 1; groups Strong, Intermediate, Weak, Zero
row,Structure (SMILES),"resistance group, Enzyme Assay"
1,"CC(C)C1(C)N=C(c2nc3ccccc3cc2C(=O)O)NC1=O (stereo not shown) [Imazaquin, imazaquin]",Strong
2,"CCc1cnc(C2=NC(=O)C(C)(C(C)C)N2)c(C(=O)O)c1 (stereo not shown) [Imazethapyr, 5-ethyl-2-(5-iso-propyl-5-methyl-4-oxo-2-imidazolin-2-yl) nicotinic acid]",Strong

# Same assay, conditions: fold increase in resistance vs wild type, heterozygous Mutant 1; 30 min
row,Structure (SMILES),Fold Increase
1,"CC(C)C1(C)N=C(c2nc3ccccc3cc2C(=O)O)NC1=O (stereo not shown) [Imazaquin, imazaquin]",250
2,"CCc1cnc(C2=NC(=O)C(C)(C(C)C)N2)c(C(=O)O)c1 (stereo not shown) [Imazethapyr, 5-ethyl-2-(5-iso-propyl-5-methyl-4-oxo-2-imidazolin-2-yl) nicotinic acid]",>660

# Target: ALS enzyme extracted from Mutant 2 (heterozygous)
# Experiment: ALS enzyme assay, heterozygous Mutant 2
# Type: biochemical, Zea mays
# Conditions: ALS of heterozygous Mutant 2; read-out: ID50% (the source's name)
# Description: as §1, §2, §3, §4, §5, §6
row,Structure (SMILES),IC50
1,"CC(C)C1(C)N=C(c2nc3ccccc3cc2C(=O)O)NC1=O (stereo not shown) [Imazaquin, imazaquin]",20 µM
2,"CCc1cnc(C2=NC(=O)C(C)(C(C)C)N2)c(C(=O)O)c1 (stereo not shown) [Imazethapyr, 5-ethyl-2-(5-iso-propyl-5-methyl-4-oxo-2-imidazolin-2-yl) nicotinic acid]",230 µM

# Same assay, conditions: Mutant 2; groups Strong, Intermediate, Weak, Zero
row,Structure (SMILES),"resistance group, Enzyme Assay"
1,"CC(C)C1(C)N=C(c2nc3ccccc3cc2C(=O)O)NC1=O (stereo not shown) [Imazaquin, imazaquin]",Intermediate
2,"CCc1cnc(C2=NC(=O)C(C)(C(C)C)N2)c(C(=O)O)c1 (stereo not shown) [Imazethapyr, 5-ethyl-2-(5-iso-propyl-5-methyl-4-oxo-2-imidazolin-2-yl) nicotinic acid]",Intermediate

# Same assay, conditions: fold increase in resistance vs wild type, heterozygous Mutant 2; 30 min
row,Structure (SMILES),Fold Increase
1,"CC(C)C1(C)N=C(c2nc3ccccc3cc2C(=O)O)NC1=O (stereo not shown) [Imazaquin, imazaquin]",33
2,"CCc1cnc(C2=NC(=O)C(C)(C(C)C)N2)c(C(=O)O)c1 (stereo not shown) [Imazethapyr, 5-ethyl-2-(5-iso-propyl-5-methyl-4-oxo-2-imidazolin-2-yl) nicotinic acid]",153

# Target: ALS enzyme extracted from Mutant 8 (heterozygous)
# Experiment: ALS enzyme assay, heterozygous Mutant 8
# Type: biochemical, Zea mays
# Conditions: ALS of heterozygous Mutant 8; read-out: ID50% (the source's name)
# Description: as §1, §2, §3, §4, §5, §6
row,Structure (SMILES),IC50
1,"CC(C)C1(C)N=C(c2nc3ccccc3cc2C(=O)O)NC1=O (stereo not shown) [Imazaquin, imazaquin]",150 µM
2,"CCc1cnc(C2=NC(=O)C(C)(C(C)C)N2)c(C(=O)O)c1 (stereo not shown) [Imazethapyr, 5-ethyl-2-(5-iso-propyl-5-methyl-4-oxo-2-imidazolin-2-yl) nicotinic acid]",> 1000 µM

# Same assay, conditions: Mutant 8; groups Strong, Intermediate, Weak, Zero
row,Structure (SMILES),"resistance group, Enzyme Assay"
1,"CC(C)C1(C)N=C(c2nc3ccccc3cc2C(=O)O)NC1=O (stereo not shown) [Imazaquin, imazaquin]",Strong
2,"CCc1cnc(C2=NC(=O)C(C)(C(C)C)N2)c(C(=O)O)c1 (stereo not shown) [Imazethapyr, 5-ethyl-2-(5-iso-propyl-5-methyl-4-oxo-2-imidazolin-2-yl) nicotinic acid]",Strong

# Same assay, conditions: fold increase in resistance vs wild type, heterozygous Mutant 8; 30 min
row,Structure (SMILES),Fold Increase
1,"CC(C)C1(C)N=C(c2nc3ccccc3cc2C(=O)O)NC1=O (stereo not shown) [Imazaquin, imazaquin]",250
2,"CCc1cnc(C2=NC(=O)C(C)(C(C)C)N2)c(C(=O)O)c1 (stereo not shown) [Imazethapyr, 5-ethyl-2-(5-iso-propyl-5-methyl-4-oxo-2-imidazolin-2-yl) nicotinic acid]",>660

# Target: ALS extracted from leaves of MUTANT 1 (homozygous)
# Experiment: ALS enzyme assay, homozygous Mutant 1
# Type: biochemical, Zea mays
# Conditions: ALS of homozygous Mutant 1; read-out: ID50% Mutant
# Description: as §2, §3, §4, §5, §6
row,Structure (SMILES),IC50
1,"CC(C)C1(C)N=C(c2nc3ccccc3cc2C(=O)O)NC1=O (stereo not shown) [Imazaquin, imazaquin]",175 µM
2,"CCc1cnc(C2=NC(=O)C(C)(C(C)C)N2)c(C(=O)O)c1 (stereo not shown) [Imazethapyr, 5-ethyl-2-(5-iso-propyl-5-methyl-4-oxo-2-imidazolin-2-yl) nicotinic acid]",750 µM

# Same assay, conditions: fold increase in resistance vs wild type, homozygous Mutant 1; 30 min
row,Structure (SMILES),Fold Increase
1,"CC(C)C1(C)N=C(c2nc3ccccc3cc2C(=O)O)NC1=O (stereo not shown) [Imazaquin, imazaquin]",292
2,"CCc1cnc(C2=NC(=O)C(C)(C(C)C)N2)c(C(=O)O)c1 (stereo not shown) [Imazethapyr, 5-ethyl-2-(5-iso-propyl-5-methyl-4-oxo-2-imidazolin-2-yl) nicotinic acid]",500

# Test system: Mutant 1 plants
# Experiment: Cross-resistance testing (glasshouse dose response), Mutant 1
# Type: in vivo, Zea mays
# Conditions: pre-emergence spray, assessed after four weeks growth
# Source text: (§7) The seeds used in this screen were populations of mixed tolerant and sensitive seed, segregating 1:1, derived from each of the heterogygous, tolerant mutants crossed with homozygous, sensitive UE95. All of the tolerant progeny are heterozygous for tolerance. Each of the mutants identified above were used except mutant 4. The controls were seed of self-pollinated UE95 which was pollinated in the same year as the tolerant lines.
# (§8) One litre of compost was placed in each seed tray of dimensions 19cm x 11cm x 5cm deep and firmed down flat. Two furrows 1 cm deep were drawn in the surface of the compost in each tray and six seeds were sown in each furrow (total twelve seeds per tray). Some trays were sown with 24 seeds, in which case three furrows were made and 8 seeds sown per furrow.
# (§9) In each test each tray contained either the seed of one mutant or of the UE95 control for each herbicide application rate and for the untreated control.
# (§10) Five different types of ALS-inhibitor herbicides were tested on the mutants plus imazethapyr (PURSUIT) as a comparison. Four rates of each were applied; approximately 0.1x, 0.5x, 1x and 4x the estimated field rates for each herbicide. The rates are the same for mutant 3 to 10 but higher rates for chlorimuron (CLASSIC) and lower rates for chlorsulfuron (GLEAN) were applied to mutants 1 and 2.
# (§11) The rates of application used in the screening tests were as follows: chlorimuron (CLASSIC) 4,20,40,160 g/Ha (mutants 1 and 2); and, 8,40,80,320 g/Ha (mutants 3 to 10); chlorsulfuron (GLEAN) 5,25,50,200 g/Ha (mutants 1 and 2); and, 1,5,10,40 g/Ha (mutants 3 to 10); imazaquin (SCEPTER) 30,150,300,1200 g/Ha; triazolopyrimidine 5,25,50,200 g/Ha; phenoxypyrimidine 10,50,100,400 g/Ha; and, imazethapyr (PURSUIT) 30,150,300,1200 g/Ha The triazolopyrimidine and phenoxypyrimidine were formulated in an adjuvant wetting agent known as JF5969 and diluted with water to make a final concentration of 10% JF5969. The remaining compounds were diluted with water only.
# (§12) The spray jet and parameters were as decribed above under "SCREENING". After spraying, the seeds were covered with 0.5 litre of compost and firmed down flat (2.5cm covering) and grown under the conditions described under "SCREENING" above.
# (§13) Visual assessments were made of the plants after four weeks growth. Each plant was scored on a scale of zero to 5 and the height measured from soil surface to the tallest leaf tip. The scoring scale was as follows: 0 - 0 to 10% damage (little or no herbicidal effect) 1 - 11 to 25% damage 2 - 26 to 50% damage 3 - 51 to […] 4 - 81 to 95% damage 5 - 96 to 100% damage (complete death of the plant) In carrying out these assessments, plants which were obviously of the sensitive phenotype were ignored (approximately 50% of the plants). […]
row,Structure (SMILES),"resistance group, Dose Response"
1,"CC(C)C1(C)N=C(c2nc3ccccc3cc2C(=O)O)NC1=O (stereo not shown) [Imazaquin, imazaquin]",Strong
2,"CCc1cnc(C2=NC(=O)C(C)(C(C)C)N2)c(C(=O)O)c1 (stereo not shown) [Imazethapyr, 5-ethyl-2-(5-iso-propyl-5-methyl-4-oxo-2-imidazolin-2-yl) nicotinic acid]",Strong

# Test system: Mutant 2 plants
# Experiment: Cross-resistance testing (glasshouse dose response), Mutant 2
# Type: in vivo, Zea mays
# Conditions: pre-emergence spray, assessed after four weeks growth
# Source text: as §7, §8, §9, §10, §11, §12, §13
row,Structure (SMILES),"resistance group, Dose Response"
1,"CC(C)C1(C)N=C(c2nc3ccccc3cc2C(=O)O)NC1=O (stereo not shown) [Imazaquin, imazaquin]",Strong
2,"CCc1cnc(C2=NC(=O)C(C)(C(C)C)N2)c(C(=O)O)c1 (stereo not shown) [Imazethapyr, 5-ethyl-2-(5-iso-propyl-5-methyl-4-oxo-2-imidazolin-2-yl) nicotinic acid]",Intermediate

# Test system: Mutant 10 plants
# Experiment: Cross-resistance testing (glasshouse dose response), Mutant 10
# Type: in vivo, Zea mays
# Conditions: pre-emergence spray, assessed after four weeks growth
# Source text: as §7, §8, §9, §10, §11, §12, §13
row,Structure (SMILES),"resistance group, Dose Response"
1,"CC(C)C1(C)N=C(c2nc3ccccc3cc2C(=O)O)NC1=O (stereo not shown) [Imazaquin, imazaquin]",Weak
2,"CCc1cnc(C2=NC(=O)C(C)(C(C)C)N2)c(C(=O)O)c1 (stereo not shown) [Imazethapyr, 5-ethyl-2-(5-iso-propyl-5-methyl-4-oxo-2-imidazolin-2-yl) nicotinic acid]",Intermediate
